Source: patent publication US9302999B2, “Substituted triazoles as herbicides” (E. I. DU PONT DE NEMOURS AND COMPANY, priority 2012, dated 2016)

Tests used:
Format in all cases: in vivo
[1] = tested on: oat, wild (wild oat, Avena fatua); assay: Test D pre-/postemergence: oat, wild
Method in brief: (§1)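 Visual ratings from 0 (no effect) to 100 (complete control) were made 14–21 days after treatment, relative to controls. Applications were preemergence to seeds in silt loam, or postemergence to 2–18 cm (1–4 leaf) plants in peat-based medium. Compounds were formulated in a surfactant-containing non-phytotoxic solvent.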

[2] = tested on: field poppy (Papaver rhoeas); assay: Test D pre-/postemergence: field poppy
Method in brief: as §1

[3] = tested on: bermudagrass (Cynodon dactylon); assay: Test C pre-/postemergence: bermudagrass
Method in brief: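 Visual injury scored 0–100 (100 = complete control) against untreated controls after 13–15 greenhouse days. Surfactant-containing solvent formulations applied either to soil after sowing (loam/sand) or over 1- to 4-leaf plants, 2–18 cm tall.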

[4] = tested on: speedwell (bird's-eye speedwell, Veronica persica); assay: Test D pre-/postemergence: speedwell
Method in brief: as §1

[5] = tested on: barnyardgrass (Echinochloa crus-galli); assay: Test B flooded paddy: barnyardgrass; settings: Flood; 250 g ai/ha; applied to paddy water at 2-leaf stage; visually evaluated after 13 to 15 days
Method in brief: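 Each compound is applied to the floodwater of pots holding 2-leaf seedlings, water standing 3 cm over the soil throughout. Plants stay in a greenhouse 13 to 15 days before visual scoring against controls from 0 (no effect) to 100 (complete control).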

[6] = Postemergence, 31 g ai/ha, scale 0 to 100 (0 no effect, 100 complete control)
[7] = Postemergence, 62 g ai/ha, scale 0 to 100 (0 no effect, 100 complete control)
[8] = Postemergence, 125 g ai/ha, scale 0 to 100, 0 no effect, 100 complete control
[9] = Postemergence, 250 g ai/ha, scale 0 to 100 (0 no effect, 100 complete control)
[10] = Postemergence, 16 g ai/ha, scale 0 to 100
[11] = Postemergence, 250 g ai/ha, scale 0 to 100
[12] = Postemergence, 8 g ai/ha, scale 0 to 100
[13] = Preemergence, 62 g ai/ha, scale of 0 to 100, 0 is no effect, 100 is complete control
[14] = Preemergence, 125 g ai/ha, scale 0 to 100, 0 no effect, 100 complete control
[15] = Preemergence, 250 g ai/ha, scale 0 to 100, 0 no effect, 100 complete control
[16] = Preemergence, 16 g ai/ha, scale 0 to 100 (0 no effect, 100 complete control)
[17] = Preemergence, 31 g ai/ha, scale 0 to 100 (0 no effect, 100 complete control)
[18] = Preemergence, 62 g ai/ha, scale 0 to 100
[19] = Preemergence, 125 g ai/ha, scale 0 to 100
[20] = Preemergence, 250 g ai/ha, scale 0 to 100

Row | Compound | Plant response rating: Oat, Wild [1, 6] | Plant response rating: Oat, Wild [1, 7] | Plant response rating: Oat, Wild [1, 8] | Plant response rating: Oat, Wild [1, 9] | Plant response rating, Oat, Wild [1, 10] | Plant response rating: Field Poppy [2, 6] | Plant response rating: Field Poppy [2, 7] | Plant response rating: Field Poppy [2, 8] | Plant response rating: Field Poppy [2, 9] | Plant response rating, Field Poppy [2, 10] | Plant response rating, Bermudagrass [3, 6] | Plant response rating, Bermudagrass [3, 7] | Plant response rating, Bermudagrass [3, 11] | Plant response rating: Speedwell [4, 6] | Plant response rating: Speedwell [4, 7] | Plant response rating: Speedwell [4, 8] | Plant response rating: Speedwell [4, 9] | Plant response rating, Speedwell [4, 10] | Plant response rating, Barnyardgrass (0 to 100 scale, 0 is no effect, 100 is complete control) [5] | Plant response rating, Bermudagrass [3, 8] | further results
1 | Cc1nn(-c2ccnc(C(F)(F)F)c2)nc1Cc1ccnc(C(F)(F)F)c1 [Compound 137] | 10 | 20 | 35 | 50 | 0 | 40 | 100 | 100 | 100 | 30 | 30 | 30 | 45 | 70 | 85 | 95 | 100 | 70 | 45 | – | –
2 | Cc1nn(-c2ccc(F)c(F)c2)nc1Oc1ccnc(C(F)(F)F)c1 [Compound 145] | 20 | 30 | 35 | – | 10 | 100 | 100 | 100 | – | 75 | 10 | 40 | 90 | 70 | 85 | 100 | – | 55 | 90 | 75 | Plant response rating, Oat, Wild [1, 12]: 10; Plant response rating, Field Poppy [2, 12]: 25; Plant response rating, Bermudagrass ([3]; Preemergence, 31 g ai/ha, scale of 0 to 100, 0 is no effect, 100 is complete control): 98; Plant response rating, Bermudagrass [3, 13]: 98; Plant response rating, Bermudagrass [3, 14]: 98; Plant response rating, Bermudagrass [3, 15]: 98; Plant response rating, Speedwell [4, 12]: 50
3 | CCOc1nn(-c2ccc(F)cc2)nc1Cc1ccnc(C(F)F)c1 [Compound 195] | 20 | 25 | 35 | 45 | 10 | 75 | 95 | 100 | 100 | 35 | 40 | 60 | 95 | 100 | 100 | 100 | 100 | 100 | 85 | 90 | Plant response rating, Oat, Wild [1, 16]: 0; Plant response rating, Oat, Wild [1, 17]: 0; Plant response rating, Oat, Wild [1, 18]: 0; Plant response rating, Oat, Wild [1, 19]: 75; Plant response rating, Oat, Wild [1, 20]: 75; Plant response rating, Field Poppy [2, 16]: 30; Plant response rating, Field Poppy [2, 17]: 40; Plant response rating, Field Poppy [2, 18]: 60; Plant response rating, Field Poppy [2, 19]: 100; Plant response rating, Field Poppy [2, 20]: 100; Plant response rating, Bermudagrass ([3]; Preemergence, 31 g ai/ha, scale 0 (no effect) to 100 (complete control)): 98; Plant response rating, Bermudagrass [3, 13]: 98; Plant response rating, Bermudagrass [3, 14]: 98; Plant response rating, Bermudagrass [3, 15]: 98; Plant response rating, Speedwell [4, 16]: 30; Plant response rating, Speedwell [4, 17]: 100; Plant response rating, Speedwell [4, 18]: 100; Plant response rating, Speedwell [4, 19]: 100; Plant response rating, Speedwell [4, 20]: 100
